Measurements published in US7396534B2, “Cosmetic compositions containing Nigrospora sphaerica extracts” (Unilever Home & Personal Care USA, division of Conopco, Inc., priority 2004, dated 2008).

Columns and labels:
[1] = system: skin from 8-month old pigmented pigs; test: Pig skin organ culture, 14C-thiouracil incorporation (new melanin synthesis); assay type: cell-based; details: 1.4 mg/ml (10 mM), pig skin biopsies, three day incubation
Description: Organ Culture Method Waste skin from 8-month old pigmented pigs was shaved to remove hairs and washed thoroughly to remove debris and reduce microbial content. The cleaned skin was then dermatomed to approximately 1-mm thickness×75-cm^2 and placed in tissue culture flasks containing Dulbecco's Modified Eagle's Medium (DMEM Cat#1188507) containing penicillin (100-units/ml), streptomycin (100-ug/ml), kanamycin (200-ug/ml), […]-mM), and fungizone (0.5-ug/ml). All flasks were incubated overnight at 37° C. in the presence of 5% carbon dioxide. This allowed the skin to equilibrate for 18 hours prior to the addition of melanin inhibitors. Areas of the skin that had scratches, erythema, or uneven pigmentation were discarded. The following morning, the skin was punched into 4-mm diameter biopsies and transferred to a 96-well tissue culture plate. To each well containing a biopsy, 180-microliters of fresh DMEM containing penicillin (100-units/ml), streptomycin (100-ug/ml), […]-mM), hydrocortisone (100-μg/ml) and 0.4-μCi/ml ^14C-thiouracil (Moravek Biochemicals) was added along with 20-microliters of natural extract. […] Samples were mixed several times to ensure even dispersion, sealed, and assessed for radiolabel incorporation using a Packard TopCount scintillation counter. […]

[2] = system: MelanoDerm tissue equivalent model (MEL-300) containing melanocytes obtained from dark skin individuals; test: MelanoDerm tissue equivalent model, melanin content; assay type: cell-based, human; details: 14 micro-g/ml (100 uM); 14-day period, relative to untreated or vehicle control
Description: MelanoDerm Tissue Model Method
A MelanoDerm tissue equivalent model (MEL-300 from Mat Tek, Ashland, Mass.) containing melanocytes obtained from dark skin individuals was utilized to confirm the results obtained in the pig organ culture. MelanoDerms were cultured as per the supplier instructions.
[…] Positive control was included, i.e., kojic acid, which is a known skin lightening agent. During each medium change, a portion of the waste was analyzed for levels of lactate dehydrogenase as an indicator of cellular toxicity and stress. At no time was the level of lactate dehydrogenase above the vehicle control solvents (water or ethanol).
Determination of melanin content within each MelanoDerm was performed using the assay provided by the manufacturer. Each MelanoDerm was homogenized in 450-microliters of buffer (1% SDS, 0.05-mM EDTA, 10-mM Tris-HCl, pH 6.8) containing 20-microliters of Proteinase K (5 mg/ml) and incubated overnight at 45° C. […] The optical density of the top phase was determined (405-nm) following extraction of the sample with 100-microliters of chloroform:methanol (2:1) and centrifugation (10,000 g) for ten minutes. Optical density readings relative to the untreated or vehicle control (water or ethanol) were then calculated.

## O=c1cc(CO)occ1O [Kojic Acid]
[1]
  % Radiolabel Reduction: 56%
[2]
  % Melanin Reduction: 9.5%
